Measurements published in patent US10479807B2, “Silylated pyrimidine prodrugs and methods of their use” (priority 2014, dated 2019).
Like-named read-outs stand apart in the source and are kept apart here.

Tests used:
L1210 = assay: In vitro cytotoxicity, leukemia; assay type: cell-based; details: Mus musculus
mice = assay: Toxicity of formulated Compound XI in mice; assay type: in vivo; details: nanoemulsion, intravenously on three consecutive days, doses up to 60 mg/kg, observed at the end of one week
Description: Compound XI was successfully formulated in a nanoemulsion at a concentration of 3 mg/ml. The nanoemulsion has an oil phase consisting of an injectable oil and lecithin and an aqueous phase comprising a tonicity adjuster, a stabilizer and water. The emulsions are of oil-in-water type with the mean oil droplets less than 100 nm. Each vehicle is at neutral pH (5-7) and about isotonic. The toxicity of formulated Compound XI was tested in mice. Mice were injected intravenously on three consecutive days with Compound XI at doses of up to 60 mg/kg and observed at the end of one week.

[1] = Release of 5-azacytidine from prodrug by hydrolysis in PBS; assay type: physicochemical; details: PBS at room temperature (20° C.)
HCT-116 = assay: In vitro cytotoxicity, colon; assay type: cell-based; details: Homo sapiens, HCT-116, read-out: In vitro cytotoxicity IC50, Colon HCT-116
MDA-MB-231 = assay: In vitro cytotoxicity, breast; assay type: cell-based; details: Homo sapiens, MDA-MB-231, read-out: In vitro cytotoxicity IC50, Breast MDA-MB-231
[2] = trifluridine alone; cited from earlier work

## Nc1ncn([C@@H]2O[C@H](CO)[C@@H](O)[C@H]2O)c(=O)n1 [5-azacyctidine, 5-azacytidine, reference compound]
L1210; L1210 leukemia, read-out: In vitro cytotoxicity IC50, Leukemia L1210
  IC50: 1.7 to 2.4 µM

## C[Si](C)(C)OC[C@H]1O[C@@H](n2cnc(N)nc2=O)C(F)(F)C1O[Si](C)(C)C (stereo partly shown) [Compound XI, 2′,2′-Difluoro-5-azadeoxycytidine-trimethylsilyl]
mice
  Toxicity as measured by weight loss: No evidence of toxicity

## C[Si](C)(C)OC[C@H]1O[C@@H](n2cnc(N)nc2=O)[C@@H](O[Si](C)(C)C)C1O[Si](C)(C)C (stereo partly shown) [NUC025, 2′,3′,5′-Tri(trimethylsilyl)-5-azacytidine]
[1]
  Active drug (5-azacytidine) recovered by hydrolysis: approximately 80%
L1210; L1210, read-out: In vitro cytotoxicity IC50, Leukemia L1210
  IC50: 1.18 µM
HCT-116
  IC50: 1.08 µM
MDA-MB-231
  IC50: 3.28 µM

## O=c1[nH]c(=O)n([C@H]2C[C@H](O)[C@@H](CO)O2)cc1C(F)(F)F [Trifluridine, 5-trifluorothymidine]
[2]
  half-life: 12 min
